Common to all, as to assay type: cell-based
For assay [1], the target named is T1, h5-HT3AR (Homo sapiens, UniProt P46098, Y228S).
T1 sequence (P46098 24-478 Y228S): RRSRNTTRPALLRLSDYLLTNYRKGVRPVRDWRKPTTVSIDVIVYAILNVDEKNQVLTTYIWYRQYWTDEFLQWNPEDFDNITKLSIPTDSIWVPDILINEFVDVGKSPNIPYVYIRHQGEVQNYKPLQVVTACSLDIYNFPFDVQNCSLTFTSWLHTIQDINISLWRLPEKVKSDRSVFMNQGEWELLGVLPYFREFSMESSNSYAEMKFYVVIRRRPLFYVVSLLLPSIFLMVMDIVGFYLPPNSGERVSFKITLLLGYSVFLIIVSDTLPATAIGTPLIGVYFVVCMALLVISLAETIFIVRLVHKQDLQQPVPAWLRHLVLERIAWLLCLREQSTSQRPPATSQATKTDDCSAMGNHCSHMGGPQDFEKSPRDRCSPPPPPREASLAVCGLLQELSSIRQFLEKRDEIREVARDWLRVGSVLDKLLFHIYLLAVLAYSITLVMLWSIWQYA
Briefly: FLIPR Blue membrane potential assay, inhibition of 5-HT response.

A further assay has as its target T2, gp5-HT3AR (Cavia porcellus, UniProt O70212).
T2 sequence (O70212 20-490): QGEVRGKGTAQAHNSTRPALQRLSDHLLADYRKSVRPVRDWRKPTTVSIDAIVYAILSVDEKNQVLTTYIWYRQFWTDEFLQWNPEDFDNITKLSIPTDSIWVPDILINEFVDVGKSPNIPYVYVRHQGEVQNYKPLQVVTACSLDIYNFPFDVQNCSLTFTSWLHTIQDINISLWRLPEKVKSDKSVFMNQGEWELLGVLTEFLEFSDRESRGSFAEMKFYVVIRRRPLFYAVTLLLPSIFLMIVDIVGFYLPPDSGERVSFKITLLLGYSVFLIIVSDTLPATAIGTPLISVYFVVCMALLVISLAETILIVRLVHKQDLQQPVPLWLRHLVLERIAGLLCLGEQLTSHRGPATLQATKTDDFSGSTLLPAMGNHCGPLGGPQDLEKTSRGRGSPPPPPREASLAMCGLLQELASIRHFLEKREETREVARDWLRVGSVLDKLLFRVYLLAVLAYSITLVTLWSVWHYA
The description is as above.

Assay [2] deals with T3, h5-HT3AR (Homo sapiens, UniProt P46098, R200K).
T3 sequence (P46098 24-478 R200K): T1 sequence (P46098 24-478 Y228S) with R177K, S205Y
Described as above.

Assay [3] concerns the target T4, h5-HT3AR (Homo sapiens, UniProt P46098, S225T).
T4 sequence (P46098 24-478 S225T): T1 sequence (P46098 24-478 Y228S) with S202T, S205Y
The assay is described as above.

For assay [4], the target named is T5, h5-HT3AR (Homo sapiens, UniProt P46098).
T5 sequence (P46098 24-478): T1 sequence (P46098 24-478 Y228S) with S205Y
The experiment in a line: TEVC, Xenopus oocytes, activation.

In assay [5] the target is T6, h5-HT3AR (Homo sapiens, UniProt P46098, M223I).
T6 sequence (P46098 24-478 M223I): T1 sequence (P46098 24-478 Y228S) with M200I, S205Y
Briefly: FLIPR Blue membrane potential assay, inhibition of 5-HT response.

Residue numbers refer to the chain shown, from its start.

Take `Cc1ccc(Sc2ccccc2N2CCNCC2)c(C)c1` [vortioxetine]: the IC50 at h5-HT3AR [1] was found to be 84 nM; against gp5-HT3AR it was 2350 nM; against h5-HT3AR [2] it was 94 nM; at h5-HT3AR [3] it was 58 nM; against h5-HT3AR [5], 20 nM. In addition, the response on h5-HT3AR [4] was half-maximal at 150 nM (EC50).

As a reminder, the IC50 is the concentration that gives 50% inhibition. A higher IC50 goes with weaker potency. As a reminder, the EC50 is the concentration giving half of the maximal effect. Read a high EC50 as weaker potency.

The values above are taken from doi:10.1101/2024.02.23.581731v1 (biorxiv, 2024).
